Like-named read-outs stand apart in the source and are kept apart here.
How the values were obtained:
hKv7.3/5 = biological target: T1, hKv7.3/5 (Homo sapiens, UniProt O43525+Q9NR82); experiment: Kv7.3/5 HCS, FLIPR potassium assay; format: cell-based
T1 construct: expressed in transfected cells; host or cells: CHO
Procedure: Cell culture: Chinese hamster ovary (CHO) cell-line cells were cultured in F-12 nutrient mixture (Biological Industries) supplemented with 10% fetal bovine serum with 1% penicillin-streptomycin (Biological Industries) in a humidified 5% CO2 incubator at 37° C. To express the appropriate gene either Kv7.3/5, Kv7.4 or TRPA1 5 μg plasmid was transfected using Amaxa, DT-133 program, with p-3 Kit.
Kv7.3/5 and 7.4HCS using FLIPR Potassium Assay Kit: Kv7.3/5 and 7.4 HCS using the FLIPR Potassium Assay Kit was performed similarly to the Kv7.2/3 HCS, except that the Tecan Spark plate-reader injectors were primed with Tl+(1 mM Tl2SO4) or Tl++K+(1 mM Tl2SO4; 5 mM K2SO4) for Kv7.3/5, or Tl+(1 mM Tl2SO4) or Tl++K+(1 mM Tl2SO4; 10 mM K2SO4) for Kv7.4 for channel activation and data correction.
FLIPR Potassium Assay Kit: The FLIPR Potassium Assay Kit (R8222 FLIPR Potassium Assay Explorer Kits, Molecular Devices) was used with transfected CHO cells.
According to optimization process, to achieve a uniform and consistent screening condition of molecules, the following protocol was established: 2 days following transfection cells were seeded in 384-well, black-walled, clear-bottomed, at a density of 5,000 cells per well 24 hours before the assay conductance and incubated overnight in their normal growth medium. On the experiment day the medium was replaced with HBSS, HEPES, and the tested compound/vehicle (0.2% DMSO). Dye solution (prepared according to the manufacturer) was added to the wells and plates were incubated for 1.5 hour light-protected in room temperature. The Tecan Spark plate-reader injectors were primed with Tl+(1 mM Tl2SO4) or Tl++K+(1 mM Tl2SO4; 5 mM K2SO4) for Kv7.3/5 channel activation and data correction or Tl+(1 mM Tl2SO4) or Tl++K+(1 mM Tl2SO4; 10 mM K2SO4) for Kv7.4 for channel activation and data correction. […] To calculate IC50 values, the data was fitted to sigmoidal regression using Prism GraphPad.

HepG2 toxicity, ATPlite = format: cell-based, human; details: human, hepg2 cells; 48 hours; read-out: HepG2 Toxicity LD50
Procedure: Cell culture: HepG2 cell-line cells were cultured in EMEM (ATCC 30-2033) medium supplemented with 10% fetal bovine serum (Biological Industries) in a humidified 5% CO2 incubator at 37° C.
ATPlite™ 1step Kit: ATPlite™ 1step kit (PerkinElmer) was used in a 384-wells format to assess potential liver toxicity using HepG2 cells. This is an ATP detection system based on firefly luciferase luminescence for the quantitative evaluation of proliferation and cytotoxicity of cells. ATP is a marker for cell viability because it is present in all metabolically active cells and its concentration declines very rapidly when the cells undergo necrosis or apoptosis.
According to an optimization process done to achieve uniform and consistent screening condition of molecules, the following protocol was established: Cells were seeded in 384-well, black-walled, clear-bottomed, at a density of 4000 cells per well […] and incubated overnight in their normal growth medium. On day two (48 hours before viability measurement), the tested compounds and the positive control were applied to the wells according to the plate design. […] 48 hours later, reconstituted lyophilized substrate solution was added to each well and the sealed 384-well microplate was mixed for 2 minutes at 1100 rpm in an orbital microplate and plates were incubated for 10 minutes in the dark at room temperature. Right after, luminescence was measured in the Tecan plate reader. To estimate the LD50 and LD25 values the data was fitted to sigmoidal regression using Prism-GraphPad. […]

[1] = Rat liver microsome metabolic stability; format: in vitro ADME; details: rat liver microsomes; for half-life at 1 µM: read-out: RLM T1/2
Source text: Liver microsomes which are subcellular particles derived from endoplasmic reticulum of hepatic cells were used for evaluating the tested compounds. These particles are rich in drug metabolizing enzymes, including the cytochrome p-450 family. Liver microsomes are a recommended test system for various in vitro drug metabolism and pharmacokinetics (DMPK) studies. CLint values lower than […] are considered suitable for drug development.
Liver Microsome Metabolic Stability Assay (NADPH): The liver microsome stability assay was evaluated through pre-incubation with HLMs. A liver microsome mixture (pooled from multiple donors) at a concentration of 0.5 mg/mL, and the test compound at a concentration of 1 μM, were warmed in the presence of a NADPH regenerating system (about 1.0 mM) at 37° C. Positive controls, including testosterone (a CYP3A4 substrate), propafenone (a CYP2D6 substrate), and diclofenac (a CYP2C9) substrate, were concurrently incubated with the HLMs, in the presence of the NADPH regenerating system (1.0 mM). Samples were extracted during incubation at multiple intervals: 0, 5, 15, 30, 45 and 60 minutes. To terminate the reactions, the samples were promptly mixed with cooled acetonitrile that included an internal standard (IS). An additional compound was incubated with the HLMs in the absence of the NADPH regeneration system, from which a sample was taken at the 60-minute interval.
The clearance of the test compound in the samples was subsequently analyzed by LC-MS/MS based on the peak area ratios of the analyte to the IS.
The following equation was used to calculate the microsome clearance: […]
Liver weight: 40 grams/kg, 30 grams/kg, 32 grams/kg, 20 grams/kg and 88 grams/kg, for rat, monkey, dog, human and mouse, respectively.

[2] = Bidirectional permeability in Caco-2 cells; format: in vitro ADME, human
Procedure: Cell culture: Caco-2 cells (ATCC) were seeded onto polycarbonate (PC) membranes in 96-well insert plates. The cells were cultured in media for 21-28 days prior to performing the transport assays.
Validation of monolayer integrity: Once the Caco-2 cells formed a confluent monolayer, their integrity was evaluated using a Lucifer yellow rejection assay. The monolayer integrity was further evaluated by measuring, in duplicate wells, the unidirectional (A→B) permeability of nadolol (a low permeability marker) and metoprolol (a high permeability marker), as well as bidirectional permeability of digoxin (a P-glycoprotein substrate marker).
Assay: The compounds were assayed under bidirectional transport conditions (A→B and B→A) at a concentration of 2.00 μM (with DMSO≤1.0%), using a transport buffer composed of HBSS containing 10.0 mM HEPES, pH 7.40±0.05. The incubation was carried out at 37° C., with 5.0% CO2 and relatively saturated humidity for 2 hours.
The dosing solution was spiked and mixed with the transport buffer and a Stop Solution (containing an internal standard (IS)) to create a T0 sample.
Sample analysis: Following the incubation, all of the samples were analyzed using LC-MS/MS. The concentrations of the test compounds were expressed as peak area ratios of the analytes versus the IS.

T1 sequence (O43525 whole entry): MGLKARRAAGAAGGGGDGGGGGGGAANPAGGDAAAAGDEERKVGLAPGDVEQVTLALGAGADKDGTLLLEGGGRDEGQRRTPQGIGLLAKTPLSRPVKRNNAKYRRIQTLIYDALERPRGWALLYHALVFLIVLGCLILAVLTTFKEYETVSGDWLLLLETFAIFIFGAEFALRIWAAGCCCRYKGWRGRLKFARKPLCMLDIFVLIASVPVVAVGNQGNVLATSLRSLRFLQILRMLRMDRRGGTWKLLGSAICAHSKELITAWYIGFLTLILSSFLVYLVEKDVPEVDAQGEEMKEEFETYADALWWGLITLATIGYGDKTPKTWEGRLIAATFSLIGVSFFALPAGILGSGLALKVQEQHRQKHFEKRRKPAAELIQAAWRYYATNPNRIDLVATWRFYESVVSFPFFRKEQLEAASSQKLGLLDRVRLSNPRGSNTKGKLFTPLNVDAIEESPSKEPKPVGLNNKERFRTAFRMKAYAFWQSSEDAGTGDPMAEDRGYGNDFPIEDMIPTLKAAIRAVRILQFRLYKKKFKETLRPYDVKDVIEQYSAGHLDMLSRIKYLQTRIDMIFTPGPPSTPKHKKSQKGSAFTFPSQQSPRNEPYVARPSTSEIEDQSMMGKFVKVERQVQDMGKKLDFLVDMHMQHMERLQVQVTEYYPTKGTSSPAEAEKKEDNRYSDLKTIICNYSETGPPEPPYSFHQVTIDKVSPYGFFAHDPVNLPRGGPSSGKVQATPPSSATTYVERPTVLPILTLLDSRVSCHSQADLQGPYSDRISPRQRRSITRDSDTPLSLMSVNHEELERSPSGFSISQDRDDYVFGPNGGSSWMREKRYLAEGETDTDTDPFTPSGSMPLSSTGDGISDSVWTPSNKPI
T1 sequence (Q9NR82 whole entry): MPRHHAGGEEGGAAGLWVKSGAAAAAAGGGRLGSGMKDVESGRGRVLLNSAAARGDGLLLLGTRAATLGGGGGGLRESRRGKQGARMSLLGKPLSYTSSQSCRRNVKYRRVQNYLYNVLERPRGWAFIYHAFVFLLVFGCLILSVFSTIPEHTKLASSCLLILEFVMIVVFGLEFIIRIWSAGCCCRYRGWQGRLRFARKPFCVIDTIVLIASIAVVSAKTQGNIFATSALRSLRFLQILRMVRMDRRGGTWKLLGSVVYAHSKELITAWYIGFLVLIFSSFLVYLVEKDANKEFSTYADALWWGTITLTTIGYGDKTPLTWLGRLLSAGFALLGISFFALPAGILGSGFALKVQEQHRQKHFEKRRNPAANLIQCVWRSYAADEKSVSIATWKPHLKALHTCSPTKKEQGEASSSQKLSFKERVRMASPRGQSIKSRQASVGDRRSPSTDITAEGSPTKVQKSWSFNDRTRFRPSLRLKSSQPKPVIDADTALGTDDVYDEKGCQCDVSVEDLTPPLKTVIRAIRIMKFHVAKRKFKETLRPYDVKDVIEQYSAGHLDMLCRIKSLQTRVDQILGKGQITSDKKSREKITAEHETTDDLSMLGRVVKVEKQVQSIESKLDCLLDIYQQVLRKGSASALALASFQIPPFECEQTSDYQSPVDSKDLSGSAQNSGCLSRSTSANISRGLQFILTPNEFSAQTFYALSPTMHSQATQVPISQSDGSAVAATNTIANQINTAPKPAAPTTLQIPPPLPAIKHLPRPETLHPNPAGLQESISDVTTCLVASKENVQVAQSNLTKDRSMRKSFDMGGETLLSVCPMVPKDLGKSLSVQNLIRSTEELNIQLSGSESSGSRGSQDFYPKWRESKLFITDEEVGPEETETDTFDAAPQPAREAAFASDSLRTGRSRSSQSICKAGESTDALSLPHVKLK

Row | Structure (SMILES) | EC50 (hKv7.3/5; read-out: Kv7.3/5 EC50 HCS) [µM] | CLint scaled at 1 µM [1] [mL/min/kg] | half-life at 1 µM [1] [min] | Caco-2 Efflux ratio ([2]; 2.00 μM, 120 min) | efflux ratio at 2 h, 2 µM ([2]; human, Caco-2, pH 7.4, 2.00 μM) | CC50 at 48 h (HepG2 toxicity, ATPlite) [µM] | Caco-2 AB [2] | EC50 (hKv7.3/5; Thallium ions (Tl+) fluorescence, read-out: hKv7.3/5 EC50) [µM]
1 | Cc1cn(-c2ccc(F)c(CC(=O)NCC(C)(C)O)c2)c2c(Cl)cc(Cl)cc12 [Compound 421] | 3 | 177 | 14.1 |  |  | > 1 |  | 
2 | O=C(Cc1cncc(-n2cc(Cl)c3cc(Cl)cc(Cl)c32)c1)N[C@@H]1COC[C@H]1O [Compound 661] | 40.9 | 527 | 4.7 |  |  | > 16.6 | 1.78 | 
3 | O=C(Cc1nccc(-n2cc(Cl)c3cc(Cl)cc(Cl)c32)n1)NC1COCC1O (stereo not shown) [Compound 760] |  |  | 11.9 |  |  |  | 7.6 | 10.7

More lines, main results first:

Row | EC50 (hKv7.3/5; read-out: Kv7.3/5 EC50 HCS) [µM] | CLint scaled at 1 µM [1] [mL/min/kg] | half-life at 1 µM [1] [min] | Caco-2 Efflux ratio ([2]; 2.00 μM, 120 min) | efflux ratio at 2 h, 2 µM ([2]; human, Caco-2, pH 7.4, 2.00 μM) | Structure (SMILES) | CC50 at 48 h (HepG2 toxicity, ATPlite) [µM] | Caco-2 AB [2] | EC50 (hKv7.3/5; Thallium ions (Tl+) fluorescence, read-out: hKv7.3/5 EC50) [µM]
4 | > 0.6 | 63.5 | 39.3 |  |  | O=C(Cc1cc(-n2cc(Cl)c3cc(Cl)cc(Cl)c32)ccc1F)NCCO [Compound 627] | 3.37 |  | 
5 |  |  |  | 2.49 | < 3 | O=C(Cc1ccnc(-n2cc(Cl)c3cc(Cl)cc(Cl)c32)n1)N[C@@H]1COC[C@H]1O [Compound 820] |  |  | 
6 |  |  | 2.5 |  |  | CC(C)c1cc(Cl)cc(Cl)c1Nc1ccc(F)c(CC(=O)NCC(C)(C)O)c1 [NH91, reference compound] |  |  | 

Reference: patent US20260327211A1, “MODULATORS OF A POTASSIUM CHANNEL AND OF TRPV1 CHANNEL AND USES THEREOF” (Bsense Bio Therapeutics Ltd., priority 2023, published 2026)
